The target in one assay is T1, histone acetylase p300 (Homo sapiens, UniProt Q09472).
T1 construct: purchased BPS
Briefly: Inhibitory activity on histone acetylase p300 (radioisotope FlashPlate). Format: biochemical. The note with it: enzyme 0.2 nM, peptide substrate 600 nM, [3H]-Ac-CoA 250 nM; read-out: IC50 against P300. The source says: Using the radioisotope FlashPlate technology, the half inhibitory concentration (IC50) of the compound according to the present invention was detected against histone acetylase p300 (purchased from BPS). […] Under the catalysis of histone acetylase p300, [3H]—Ac group in the isotope-labeled [3H]-Ac-CoA was transferred to the biotinylated histone polypeptide substrate (purchased from GL Biochem Ltd.), and then the biotinylated histone peptide substrate bound to the streptavidin on the FlashPlate board, so that the isotope was close enough to the FlashPlate board. Thus, the radiation energy of isotope could convert the scintillation fluid coated on the FlashPlate board into photons, that was able to be detected. Detailed procedures were as follows:
• 1× reaction buffer: 50 mM Tris-HCl, pH 7.5; 0.01% Tween-20 • Reaction stop solution: 750 μM Ac-CoA solution
Each test compound was dissolved into 10 mM with 100% DMSO, and then each compound was diluted to the desired concentration in Echo 384-well plate. […] 200 nl of 100% DMSO was transferred into the well as the negative control.
p300 was added to 1× reaction buffer to form a 2× enzyme solution (the final concentration of enzyme being 0.2 nM).
The peptide substrate and [3H]-Ac-CoA were added to the 1-fold reaction buffer, to form a 2-fold substrate solution (the final concentration of the substrate being 600 nM and 250 nM, respectively).
10 μl of 2-fold enzyme solution was added to the wells of 384-well reaction plate. […] The plate was centrifuged at 1000 rpm for 1 min and incubated at room temperature for 15 min.
10 μl of 2-fold substrate solution was added to each well of 384-well reaction plate. The plate was centrifuged at 1000 rpm for 1 min, and then reacted at 25° C. for 60 min.
10 μl of reaction stop solution was added to each well of 384-well reaction plate to stop the reaction. 25 μL solution was collected from each well of the test plate and transferred to Flashplate, that was placed at room temperature for 1 h. Then, Flashplate plate was washed three times with 0.1% Tween-20 solution.
4) Reading Data with MicroBeta 2
The data were copied from Microbeta 2. […] The maximum value is the conversion rate of the control DMSO, and the minimum value is the conversion rate of the control without enzyme activity.
The data were imported into Graph Pad Prism5, and the formula “log(inhibitor) vs. response−Variable slope” was used to perform curve fitting, to obtain the half inhibitory concentration (IC50).

In a further assay the test system is CWR22RV1 cells. Put plainly: Inhibition of proliferation of CWR22RV1 cells (CCK-8). The class given is cell-based, human. Conditions: 6 days culture. A digest of the protocol:
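Proliferation read-out was CCK-8 absorbance at 450 nm after 2.5 h, following 6-day culture with compound. Each well held 1500 CWR22RV1 cells; the 3-fold, 9-point series started at a final 10 μM in 0.1% DMSO. Dose-response-inhibition fit gave the IC50.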

[1] abbreviates: Homo sapiens, CWR22Rv1, 144 h, read-out: IC50 against CWR22RV1 cells.
Where [2] appears, read: Homo sapiens, CWR22Rv1, 144 h, read-out: IC50 against CWR22RV1 cells (text).
Setting [3] is: read-out: IC50 against CWR22RV1 cells.

Like-named read-outs stand apart in the source and are kept apart here. Bounds are passed on as bounds.

T1 sequence (Q09472 whole entry): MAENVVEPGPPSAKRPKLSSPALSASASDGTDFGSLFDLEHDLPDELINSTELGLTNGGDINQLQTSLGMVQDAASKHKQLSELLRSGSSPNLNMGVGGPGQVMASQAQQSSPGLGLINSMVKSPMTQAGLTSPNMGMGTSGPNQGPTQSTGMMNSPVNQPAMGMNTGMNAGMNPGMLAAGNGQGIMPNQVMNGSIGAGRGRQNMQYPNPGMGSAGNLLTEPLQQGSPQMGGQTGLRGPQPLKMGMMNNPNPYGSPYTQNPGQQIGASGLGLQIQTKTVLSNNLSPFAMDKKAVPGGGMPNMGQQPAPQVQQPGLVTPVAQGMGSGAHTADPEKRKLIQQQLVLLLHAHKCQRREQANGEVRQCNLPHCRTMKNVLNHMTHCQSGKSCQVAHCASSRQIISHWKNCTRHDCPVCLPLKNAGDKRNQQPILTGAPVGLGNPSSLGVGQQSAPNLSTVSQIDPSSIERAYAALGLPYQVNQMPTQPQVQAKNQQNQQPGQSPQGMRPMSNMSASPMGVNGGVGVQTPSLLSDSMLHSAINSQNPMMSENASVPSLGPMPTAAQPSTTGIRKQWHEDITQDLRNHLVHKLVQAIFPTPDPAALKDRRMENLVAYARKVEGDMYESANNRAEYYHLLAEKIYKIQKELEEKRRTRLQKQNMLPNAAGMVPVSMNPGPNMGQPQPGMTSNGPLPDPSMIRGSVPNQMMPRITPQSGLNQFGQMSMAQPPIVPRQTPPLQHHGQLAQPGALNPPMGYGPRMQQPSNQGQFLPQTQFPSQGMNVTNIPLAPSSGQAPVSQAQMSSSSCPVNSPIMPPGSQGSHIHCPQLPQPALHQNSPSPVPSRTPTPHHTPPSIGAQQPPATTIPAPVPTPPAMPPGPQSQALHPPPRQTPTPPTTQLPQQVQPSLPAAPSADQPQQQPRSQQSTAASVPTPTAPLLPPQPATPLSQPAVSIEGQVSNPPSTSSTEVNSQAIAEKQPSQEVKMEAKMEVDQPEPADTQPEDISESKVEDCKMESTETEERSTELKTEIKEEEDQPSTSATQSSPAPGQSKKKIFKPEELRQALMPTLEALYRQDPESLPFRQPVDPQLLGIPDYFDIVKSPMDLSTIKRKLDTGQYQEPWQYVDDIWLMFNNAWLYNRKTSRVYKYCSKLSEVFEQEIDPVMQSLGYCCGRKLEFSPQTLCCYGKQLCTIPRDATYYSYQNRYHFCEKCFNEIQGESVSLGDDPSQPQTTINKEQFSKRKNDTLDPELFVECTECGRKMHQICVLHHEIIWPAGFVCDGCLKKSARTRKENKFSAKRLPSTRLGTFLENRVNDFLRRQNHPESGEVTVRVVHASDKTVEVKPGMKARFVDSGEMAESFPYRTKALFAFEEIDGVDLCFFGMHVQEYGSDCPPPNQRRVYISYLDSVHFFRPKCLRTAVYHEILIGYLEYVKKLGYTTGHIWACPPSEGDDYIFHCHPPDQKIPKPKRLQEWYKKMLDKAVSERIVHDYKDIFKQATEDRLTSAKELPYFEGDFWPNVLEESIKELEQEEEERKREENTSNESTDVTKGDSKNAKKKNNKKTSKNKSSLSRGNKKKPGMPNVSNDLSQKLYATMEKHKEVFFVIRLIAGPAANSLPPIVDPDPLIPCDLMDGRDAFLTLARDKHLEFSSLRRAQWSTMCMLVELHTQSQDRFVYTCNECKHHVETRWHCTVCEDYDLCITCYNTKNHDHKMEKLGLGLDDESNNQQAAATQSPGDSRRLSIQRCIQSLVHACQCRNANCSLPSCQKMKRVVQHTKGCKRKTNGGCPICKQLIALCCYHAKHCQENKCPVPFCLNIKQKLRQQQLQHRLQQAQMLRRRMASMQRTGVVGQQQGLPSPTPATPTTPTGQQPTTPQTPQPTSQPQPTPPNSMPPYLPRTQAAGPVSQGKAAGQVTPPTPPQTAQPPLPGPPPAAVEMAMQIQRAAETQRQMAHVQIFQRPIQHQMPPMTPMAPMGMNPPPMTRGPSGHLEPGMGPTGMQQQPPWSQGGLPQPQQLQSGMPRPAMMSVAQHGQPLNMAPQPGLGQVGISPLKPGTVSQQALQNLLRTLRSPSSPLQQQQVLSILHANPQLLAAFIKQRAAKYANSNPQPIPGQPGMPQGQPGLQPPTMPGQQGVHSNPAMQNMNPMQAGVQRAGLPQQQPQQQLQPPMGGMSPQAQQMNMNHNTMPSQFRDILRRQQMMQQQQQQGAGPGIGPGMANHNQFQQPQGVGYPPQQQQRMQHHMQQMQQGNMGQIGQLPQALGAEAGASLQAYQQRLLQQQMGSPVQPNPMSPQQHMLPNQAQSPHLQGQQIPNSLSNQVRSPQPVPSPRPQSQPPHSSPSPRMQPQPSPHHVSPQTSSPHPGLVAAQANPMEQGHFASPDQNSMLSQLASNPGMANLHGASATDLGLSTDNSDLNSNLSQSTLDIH

As for `CCC1CC[C@@H](C2CCC(F)(F)CC2)N1C(=O)CN1C(=O)O[C@@]2(CCc3cc(NC(=O)NC)ccc32)C1=O` (stereo in doubt) [Example 212, 1-((R)-3′-(2-((2S,5R)-2-(4,4-difluorocyclohexyl)-5-ethyl-pyrrolidin-1-yl)-2-oxoethyl)-2′,4′-dioxo-2,3-dihydrospiro[indene-1,5′-oxazolidine]-5-yl)-3-methylurea], the 50% inhibitory concentration (IC50) – broadly, the concentration that gives 50% inhibition – on histone acetylase p300 is 9.3 nM; in the assay with CWR22RV1 cells (setting [1]), no more than 500 nM; in the assay on CWR22RV1 cells (setting [2]) it was no more than 500 nM.
Regarding `CNC(=O)Nc1ccc2c(c1)CC[C@@]21OC(=O)N(CC(=O)N2C(C3CC3)CC[C@H]2c2ccc(F)cc2)C1=O` (stereo in doubt) [Example 380, 1-((R)-3′-(2-((2S,5S)-2-cyclopropyl-5-(4-fluorophenyl)pyrrolidin-1-yl)-2-oxoethyl)-2′,4′-dioxo-2,3-dihydrospiro[indene-1,5′-oxazolidine]-5-yl)-3-methylurea], the IC50 at histone acetylase p300 was 5.1 nM; in the assay on CWR22RV1 cells (setting [1]), no more than 500 nM; in the assay on CWR22RV1 cells (setting [2]) it was no more than 500 nM.
For `CNC(=O)Nc1ccc2c(c1)CC[C@@]21OC(=O)N(CC(=O)N2[C@@H](C(C)C)CC[C@H]2c2ccc(F)cc2)C1=O` [Compound 48], the IC50 on histone acetylase p300 was 4.5 nM.
As for `CNC(=O)Nc1ccc2c(c1)CC[C@@]21OC(=O)N(CC(=O)N2[C@@H](C)CC[C@H]2c2ccc(F)cc2)C1=O` [Example 14, 1-((R)-3′-(2-((2S,5S)-2-(4-fluorophenyl)-5-methylpyrrolidin-1-yl)-2-oxoethyl)-2′,4′-dioxo2,3-dihydrospiro[indene-1,5′-oxazolidine]-5-yl)-3-methylurea], the results for the IC50 at histone acetylase p300, in the assay on CWR22RV1 cells (setting [1]) and with CWR22RV1 cells (setting [2]) were 5.7 nM, no more than 500 nM and no more than 500 nM, respectively.
Consider `CNC(=O)Nc1ccc2c(c1)CC[C@@]21OC(=O)N(CC(=O)N2[C@H](C)CC[C@@H]2c2ccc(F)cc2)C1=O` [Example 17, 1-((R)-3′-(2-((2R,5R)-2-(4-fluorophenyl)-5-methylpyrrolidin-1-yl)-2-oxoethyl)-2′,4′-dioxo-2,3-dihydrospiro[indene-1,5′-oxazolidine]-5-yl)-3-methylurea], for which the figures for the IC50 at histone acetylase p300 and in the assay on CWR22RV1 cells (setting [1]) were 3600 nM and greater than 2000 nM, respectively.
In the case of `CNC(=O)Nc1ccc2c(c1)CC[C@@]21OC(=O)N(CC(=O)N2C(c3ccc(F)cc3C)CC[C@H]2C)C1=O` (stereo partly drawn) [Example 21], the figures for the IC50 on histone acetylase p300 and in the assay with CWR22RV1 cells (setting [3]) were 17 nM and no more than 500 nM, respectively.
Turning to `CC[C@H]1CC[C@@H](c2ccc(F)cc2)N1C(=O)CN1C(=O)O[C@@]2(CCc3cc(NC(=O)NC)ccc32)C1=O` [Example 43, 1-((R)-3′-(2-((2S,5S)-2-ethyl-5-(4-fluorophenyl)pyrrolidin-1-yl)-2-oxoethyl)-2′,4′-dioxo-2,3-dihydrospiro[indene-1,5′-oxazolidine]-5-yl)-3-methylurea], the IC50 was 3.1 nM at histone acetylase p300, no more than 500 nM in the assay on CWR22RV1 cells (setting [1]) and no more than 500 nM with CWR22RV1 cells (setting [2]).
For `CNC(=O)Nc1ccc2c(c1)CC[C@@]21OC(=O)N(CC(=O)N2C(C)CCC2C2CCCCC2)C1=O` (stereo partly drawn) [Example 96, 1-((1R)-3′-(2-(2-cyclohexyl-5-methylpyrrolidin-1-yl)-2-oxoethyl)-2′,4′-dioxo-2,3-dihydrospiro[indene-1,5′-oxazolidine]-5-yl)-3-methylurea], the IC50 is 7.5 nM on histone acetylase p300 and no more than 500 nM in the assay on CWR22RV1 cells (setting [1]).
For `CNC(=O)Nc1ccc2c(c1)C1(CC1)CC21OC(=O)N(CC(=O)N(Cc2ccc(F)cc2)[C@@H](C)C(F)(F)F)C1=O` (stereo partly drawn) [Example 98, 2-(5-(3-methylureido)-2′,4′-dioxo-2,3-dihydrospiro[cyclopropane-indene-1,5′-oxazole]-3′-yl)-N-(4-fluorobenzyl)-N—((S)-1,1,1-trifluoropropan-2-yl)acetamide], the IC50 is 26 nM on histone acetylase p300 and 500 to 2000 nM in the assay on CWR22RV1 cells (setting [1]).
Taken in the same sequence, the figures for `CC(=O)Nc1ccc2c(c1)CC[C@@]21OC(=O)N(CC(=O)N2[C@@H](C)CC[C@H]2c2ccc(F)cc2)C1=O` [Example 114, N—((R)-3′-(2-((2S,5S)-2-(4-fluorophenyl)-5-methylpyrrolidin-1-yl)-2-oxoethyl)-2′,4′-dioxo-2,3-dihydrospiro[indene-1,5′-oxazolidine]-5-yl)acetamide] were 26 nM and 500 to 2000 nM.
Turning to `COC(=O)Nc1ccc2c(c1)CC[C@@]21OC(=O)N(CC(=O)N2[C@@H](C)CC[C@H]2c2ccc(F)cc2)C1=O` [Example 115, ((R)-3′-(2-((2S,5S)-2-(4-fluorophenyl)-5-methylpyrrolidin-1-yl)-2-oxoethyl)-2′,4′-dioxo-2,3-dihydrospiro[indene-1,5′-oxazolidine]-5-yl)carbamic acid methyl ester], the IC50 on histone acetylase p300 was 64 nM; with CWR22RV1 cells (setting [1]), greater than 2000 nM.
As for `CNC(=O)Nc1ccc2c(c1)CC[C@@]21OC(=O)N(CC(=O)N2[C@@H](C)CC[C@H]2C2CCC(F)(F)CC2)C1=O` [Example 209, 1-((R)-3′-(2-((2S,5S)-2-(4,4-difluorocyclohexyl)-5-methylpyrrolidin-1-yl)-2-oxoethyl)-2′,4′-dioxo-2,3-dihydrospiro[indene-1,5′-oxazolidine]-5-yl)-3-methylurea], the figures for the IC50 at histone acetylase p300, in the assay with CWR22RV1 cells (setting [1]) and in the assay with CWR22RV1 cells (setting [2]) were 11 nM, no more than 500 nM and no more than 500 nM, respectively.
As to `CNC(=O)Nc1ccc2c(c1)CC[C@@]21OC(=O)N(CC(=O)N2[C@@H](C)CC[C@H]2c2ccc(F)c(Cl)c2)C1=O` [Example 213, 1-((R)-3′-(2-((2S,5S)-2-(3-chloro-4-fluorophenyl)-5-methylpyrrolidin-1-yl)-2-oxoethyl)-2′,4′-dioxo-2,3-dihydrospiro[indene-1,5′-oxazolidine]-5-yl)-3-methylurea], the IC50 on histone acetylase p300 is 13 nM; in the assay on CWR22RV1 cells (setting [3]), no more than 500 nM; with CWR22RV1 cells (setting [2]) it was no more than 500 nM.
Regarding `CNC(=O)Nc1ccc2c(c1)CC[C@@]21OC(=O)N(CC(=O)N2[C@@H](C)CC[C@H]2c2ccc(F)cc2F)C1=O` [Example 217, 1-((R)-3′-(2-((2S,5S)-2-(2,4-difluorophenyl)-5-methylpyrrolidin-1-yl)-2-oxoethyl)-2′,4′-dioxo-2,3-dihydrospiro[indene-1,5′-oxazolidine]-5-yl)-3-methylurea], the results for the IC50 on histone acetylase p300, in the assay on CWR22RV1 cells (setting [1]) and in the assay on CWR22RV1 cells (setting [2]) were 5.5 nM, no more than 500 nM and no more than 500 nM, respectively.
For the molecule `CNC(=O)Nc1ccc2c(c1)CC[C@@]21OC(=O)N(CC(=O)N2CCC[C@H]2c2ccccc2)C1=O` [Example 225, 1-((R)-2′,4′-dioxo-3′-(2-oxo-2-((S)-2-phenylpyrrolidin-1-yl)ethyl)-2,3-dihydrospiro[indene-1,5′-oxazolidine]-5-yl)-3-methylurea], the IC50 at histone acetylase p300 was 67 nM; in the assay with CWR22RV1 cells (setting [1]), 500 to 2000 nM.
For the molecule `CNC(=O)Nc1ccc2c(c1)CC[C@@]21OC(=O)N(CC(=O)N2CCCC2c2ccccc2OC)C1=O` (stereo partly drawn) [Example 319, 1-((1R)-3′-(2-(2-(2-methoxyphenyl)pyrrolidin-1-yl)-2-oxoethyl)-2′,4′-dioxo-2,3-dihydrospiro[indene-1,5′-oxazolidine]-5-yl)-3-methylurea], the IC50 at histone acetylase p300 is 84 nM; with CWR22RV1 cells (setting [1]), greater than 2000 nM.
Regarding `CNC(=O)Nc1ccc2c(c1)CC[C@@]21OC(=O)N(CC(=O)N2C(C)CCC2c2ccc(OC)cc2)C1=O` (stereo partly drawn) [Example 350, 1-((1R)-3′-(2-(2-(4-methoxyphenyl)-5-methylpyrrolidin-1-yl)-2-oxoethyl)-2′,4′-dioxo-2,3-dihydrospiro[indene-1,5′-oxazolidine]-5-yl)-3-methylurea], the values for the IC50 on histone acetylase p300 and in the assay on CWR22RV1 cells (setting [1]) were 33 nM and 500 to 2000 nM, respectively.
`CNC(=O)Nc1ccc2c(c1)CC[C@@]21OC(=O)N(CC(=O)N2[C@@H](COC)CC[C@H]2c2ccc(F)cc2)C1=O` [Example 362, 1-(3′-(2-((2S,5R)-2-(4-fluorophenyl)-5-(methoxymethyl)pyrrolidin-1-yl)-2-oxoethyl)-2′,4′-dioxo-2,3-dihydrospiro[indene-1,5′-oxazolidine]-5-yl)-3-methylurea]: the IC50 on histone acetylase p300 is 15 nM; with CWR22RV1 cells (setting [1]) it was no more than 500 nM; with CWR22RV1 cells (setting [2]), no more than 500 nM.
For `CNC(=O)Nc1ccc2c(c1)CC[C@@]21OC(=O)N(CC(=O)N2C(c3ccc(F)cc3F)CC[C@@H]2C)C1=O` (stereo partly drawn) [Example 370, 1-((R)-3′-(2-((5S)-2-(2,4-difluorophenyl)-5-methylpyrrolidin-1-yl)-2-oxoethyl)-2′,4′-dioxo-2,3-dihydrospiro[indene-1,5′-oxazolidine]-5-yl)-3-methylurea], the IC50 at histone acetylase p300 was 103 nM; in the assay with CWR22RV1 cells (setting [1]), greater than 2000 nM.

These data come from patent publication US20220087996A1, “Histone acetylase p300 inhibitor and use thereof” (HINOVA PHARMACEUTICALS INC., priority 2018, published 2022).
